Data from patent US5147876A, “2,6-di,2,4,6-, 2,5,6-tri and 2,4,5,6-tetra-substituted pyrimidines, their pharmaceutically acceptable salts, pharmaceutical compositions containing same and their use in the treatment of neurological diseases” (Mitsui Petrochemical Industries, Ltd., priority 1988, dated 1992).
Structures can show the parent of a compound that is named as a salt.

System: neuro-2a (mouse neuroblastoma cells)
Assay: Action on neuro-2a: proportion of cells containing outgrown neurites
Type: cell-based
Details: mean ± S.D.
Experimental: The effects of the compounds of this invention on neuroblastoma cells were examined by the following method.
Mouse neuro 2a cells in the logarithmic growth period in the Dulbecco's modified Eagle's medium DMEM, containing 100 units/ml of penicillin G sodium and 100 micrograms/ml of streptomycin sulfate]containing 10 % of FCS were seeded in a 48-well plate so that the number of cells was 1,000 cells/well, and cultured for one day in 0.25 ml of the culture fluid in each well in an incubator containing 5 % of carbon dioxide gas in air at 37° C. Then, a 4 % aqueous glutaraldehyde solution in the same amount as a medium (0.25 ml) was added, and the culture fluid was left to stand at room temperature for 2 hours to fix the cells. After washing with water, a 0.05 % aqueous solution of methylene blue was added to stain the cells Under a microscope, the number of cells containing outgrown neurites (cells having at least one neurite with a length of at least two times as large as the long diameter of the cell) was counted visually, and the proportion of these cells in the entire cells was calculated. The well was observed over 5 or more visual fields (at least 2 % of the entire surface area of the well) continuous to the left and right from a mark put at the center of the well, and more than 200 cells was counted. One drug compound was used in 6 different concentrations at most, and three runs were conducted for each concentrations.

Compound	Number of cells having neurites with a length at least two times the diameter of each cell/total number of cells (0.1 mM) [%]	Number of cells having neurites with a length at least two times the diameter of each cell/total number of cells (0.03 mM) [%]	Number of cells having neurites with a length at least two times the diameter of each cell/total number of cells (0.3 mM) [%]	Number of cells having neurites with a length at least two times the diameter of each cell/total number of cells (0.01 mM) [%]	Number of cells having neurites with a length at least two times the diameter of each cell/total number of cells (1 mM) [%]
CN(C(=O)c1ccccc1)c1ccnc(NC2CCN(C(=O)c3ccccc3)CC2)n1 [Compound 2202]	2.2 ± 2.0				
CN(C(=O)c1ccccc1)c1ccnc(N2CCC(OC(=O)c3ccccc3)CC2)n1 [Compound 2226]	15.4 ± 3.9	6.4 ± 3.3			
CN1CCN(C(=O)N(C)c2ccnc(N3CCC(c4ccccc4)CC3)n2)CC1 [Compound 2234]	5.7 ± 2.8	5.1 ± 3.2			
CCCCNC1CCN(c2nccc(N(C)C(=O)c3ccccc3)n2)CC1 [Compound 2260]	2.3 ± 0.5	2.2 ± 0.3			
CN(C(=O)COc1ccccc1)c1ccnc(N2CCC(c3ccccc3)CC2)n1 [Compound 2286]	8.4 ± 0.8	9.7 ± 5.4			
CN(C)C(=O)N(C)c1ccnc(N2CCC(c3ccccc3)CC2)n1 [Compound 2294]	8.1 ± 1.6	3.7 ± 0.9			
CN1C(=O)Cc2cnc(N3CCN(C(c4ccccc4)c4ccccc4)CC3)nc21 [Compound 3128, 2-(4-diphenylmethylpiperazino)-5,6-dihydro-7-methyl-6-oxo(7H)pyrrolo2,3-d]pyrimidine hydrochloride]	14.2 ± 1.9		11.9 ± 4.5		
CN1C(=O)Cc2cnc(N3CCN(C(c4ccccc4)c4ccc(F)cc4)CC3)nc21 (stereo not drawn) [Compound 3136]	20.9 ± 5.3	13.8 ± 4.8	7.1 ± 3.0	5.8 ± 0.6	
Cc1ccc(C(c2ccccc2)N2CCN(c3ncc4c(n3)N(C)C(=O)C4)CC2)cc1.Cc1ccc(S(=O)(=O)O)cc1 (stereo not drawn) [Compound 3152, 2-(4-(α(4-methylphenyl)benzyl)piperazino)-5,6-dihydro-7-methyl-6-oxo(7H)pyrrolo[2,3-d)pyrimidine p-toluenesulfonate]	6.8 ± 4.2	11.4 ± 3.1			
CN1C(=O)Cc2cnc(N3CCN(C4c5ccccc5-c5ccccc54)CC3)nc21 [Compound 3200]				2.7 ± 0.7	
CN1C(=O)Cc2cnc(N3CCN(C(c4ccccc4)(c4ccccc4)c4ccccc4)CC3)nc21 [Compound 3300]			6.1 ± 1.2		7.8 ± 1.0
CN1C(=O)Cc2cnc(N3CCN(S(C)(=O)=O)CC3)nc21 [Compound 3404]		3.3 ± 1.3	3.4 ± 1.4		
